From patent publication US20260224533A1, “CRYSTALLINE NANOPARTICLES COMPRISING ENZALUTAMIDE” (HELM PHARMACEUTICALS GMBH, priority 2023, published 2026)
Converted amounts (≈) assume the structure as drawn.

Experiments:
[1] = Kinetic solubility of Enzalutamide in simulated fluids; type: physicochemical; details: kinetic from dmso stock, 37° C.
Text: Preferably, the content of the amorphous nanosized Enzalutamide in the slurry or suspension is at least 10 times higher, more preferably at least 50 times, still more preferably at least 100 times higher, even more preferably at least 500 times higher than its solubility in the liquid, preferably aqueous solution, comprising the one or more polymers and/or copolymers to form the suspension or the slurry. Accordingly, the amount of Enzalutamide amorphous nanoparticles provided in step (a) that is needed depends on its solubility. The solubility can be measured by any method known in the art. […] A decent slurry can thus be produced when the slurry or suspension comprises e.g. 5 mg of the amorphous nanoparticles provided in step (a) in 1 mL of the slurry or suspension.

[2] = cited from earlier work

What does the source list for `CNC(=O)c1ccc(N2C(=S)N(c3ccc(C#N)c(C(F)(F)F)c3)C(=O)C2(C)C)cc1F` [Enzalutamide]?
solubility kinetic ([1]; Fasted State Simulated Intestinal Fluid (FaSSIF)): ~74 µg/mL (≈ 159 µM); solubility kinetic ([1]; Simulated Gastric Fluid (SGF)): ~50 µg/mL (≈ 108 µM); solubility in water [2]: insoluble
